Experimental data published in patent US10981932B2, “Macrocyclic indole derivatives” (Bayer Aktiengesellschaft, priority 2016, dated 2021).
“And” between values parts separate entries of the source, which are not always exact repeats. Equal values may be shown once. Where a name gives a salt, the structure may show the parent alone. Read-outs that look alike come from different tables or passages of the source.

Key:
SUDHL5 [1] = assay: Induction of cytotoxicity (CellTiter-Glo, 5 h), SUDHL5
SUDHL5 [2] = assay: Induction of caspase-3/7 activity (Caspase-Glo 3/7), SUDHL5; assay type: cell-based; settings: caspase-3/7 induction, SUDHL5 cells, 3 h treatment, median
In short: (§1)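 Caspase-Glo 3/7 luminescence, 3 h compound exposure, 37 °C, humidified. Minus medium-only blank. EC50 fit: C0=1, plateau = reference max induction.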

MV-4-11 = assay: Anti-proliferative effect (CellTiter-Glo, 72 h), MV-4-11; assay type: cell-based; settings: MV-4-11 cells, median, read-out: IC50 antiproliferation assay MV-4-11 [M] (median)
In short: (§2)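 Viable cells quantified with CellTiter-Glo after 72 h at 37 °C; rim wells excluded; day 0 plate as baseline.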

A2780 = assay: Anti-proliferative effect (CellTiter-Glo, 72 h), A2780; assay type: cell-based; settings: A2780 cells, median, read-out: IC50 antiproliferation assay A2780 [M] (median)
In short: as §2

SUDHL5 [3] = assay: Anti-proliferative effect (CellTiter-Glo, 72 h), SUDHL5; assay type: cell-based; settings: SUDHL5 cells, antiproliferation, median, read-out: Antiproli SUDHL5 [M] (median)
In short: as §2

SUDHL10 [4] = assay: Induction of cytotoxicity (CellTiter-Glo, 5 h), SUDHL10
MCL-1 = MCL-1 (Homo sapiens, UniProt Q07820); assay: Protein-protein interaction assay MCL-1/Noxa BH3 peptide (MCL-1 assay), TR-FRET; assay type: binding; settings: MBP-MCL-1 / Noxa BH3-derived peptide, median
In short: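 Displacement of the biotinylated Noxa BH3 peptide from MBP-tagged human MCL-1 (1 nM) is detected by time-resolved FRET. Compounds are tested in duplicate across eleven concentrations up to 20 μM, incubated 1 h at 22 °C and overnight at 4 °C, and IC50 is fitted with a four-parameter equation.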

SUDHL10 [5] = assay: Induction of caspase-3/7 activity (Caspase-Glo 3/7), SUDHL10; assay type: cell-based; settings: caspase-3/7 induction, SUDHL10 cells, 3 h treatment, median
In short: as §1

[6] = read-out: Cytotox SUDHL5 [M] (median), SUDHL5 cells, cytotoxicity induction, CellTiter-Glo, 5 h incubation, median
[7] = read-out: Cytotox SUDHL10 [M] (median), SUDHL10 cells, cytotoxicity induction, CellTiter-Glo, 5 h incubation, median
[8] = Homo sapiens, SU-DHL-5, 5 h, read-out: Cytotox SUDHL5 [M] (median), SUDHL5 cells, cytotoxicity induction, CellTiter-Glo, 5 h, median
[9] = Homo sapiens, SU-DHL-5, 72 h, 72 h
[10] = Homo sapiens, SU-DHL10, 5 h, read-out: Cytotox SUDHL10 [M] (median), SUDHL10 cells, cytotoxicity induction, CellTiter-Glo, 5 h, median
[11] = read-out: Cytotox SUDHL5 [M] (median), SUDHL5 cells, cytotoxicity induction, CellTiter-Glo, 5 h, median

Chain of MCL-1 (Q07820 whole entry): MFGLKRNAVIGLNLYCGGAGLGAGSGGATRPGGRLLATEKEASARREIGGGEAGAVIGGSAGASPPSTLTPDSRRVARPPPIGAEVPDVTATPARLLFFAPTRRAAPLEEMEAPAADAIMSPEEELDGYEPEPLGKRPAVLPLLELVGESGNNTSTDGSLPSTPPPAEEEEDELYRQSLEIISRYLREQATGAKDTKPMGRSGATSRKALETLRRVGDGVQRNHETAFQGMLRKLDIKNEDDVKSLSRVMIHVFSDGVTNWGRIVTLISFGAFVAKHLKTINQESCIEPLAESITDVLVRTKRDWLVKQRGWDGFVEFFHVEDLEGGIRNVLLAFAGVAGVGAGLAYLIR

| SMILES | EC50 (SUDHL5 [2]) [µM] | IC50 (MV-4-11) [M] | IC50 (A2780) [M] | IC50 (SUDHL5 [3]; 72 h incubation) [M] | IC50 (MCL-1) [µM] | EC50 (SUDHL10 [5]) [µM] | EC50 (SUDHL5 [2]; Homo sapiens, SU-DHL-5, 3 h) [µM] | IC50 (MV-4-11; Homo sapiens, MV4-11, 72 h) [M] | IC50 (A2780; Homo sapiens, A2780, 72 h) [M] | IC50 (SUDHL5 [3]; [9]) [M] | EC50 (SUDHL10 [5]; Homo sapiens, SU-DHL10, 3 h) [µM] | IC50 (SUDHL5 [3]; 72 h) [M] | IC50 (SUDHL5 [1]; [6]) [M] | IC50 (SUDHL10 [4]; [7]) | IC50 (SUDHL5 [1]; [8]) [M] | IC50 (SUDHL10 [4]; [10]) [M] | IC50 (SUDHL5 [1]; [11]) [M] | IC50 (SUDHL10 [4]; read-out: Cytotox SUDHL10 [M] (median), SUDHL10 cells, cytotoxicity induction, CellTiter-Glo, 5 h, median) |
| --- | --- | --- | --- | --- | --- | --- | --- | --- | --- | --- | --- | --- | --- | --- | --- | --- | --- | --- |
| Cn1nc(COC2CC2)c2c1COCCCCn1c(C(=O)O)c(CCCOc3cccc4ccccc34)c3cccc-2c31 (single isomer, unassigned) [Example 215, 3-[(cyclopropyloxy)methyl]-1-methyl-7-[3-(naphthalen-1-yloxy)propyl]-1,10,11,12,13,15-hexahydropyrazolo[4′,3′:9,10][1,6]oxazacycloundecino[8,7,6-hi]indole-8-carboxylic Acid] | > 33 | 2.33e-05 | > 3.3e-05 | 1.48e-05 | 0.182 | > 33 |  |  |  |  |  |  | > 3.3e-05 | > 3.3e-05 M |  |  |  |  |
| Cc1c2c(nn1C)COCCCCn1c(C(=O)O)c(CCc3cccc4ccccc34)c3cccc-2c31 (racemic) [Example 354, (rac)-2,3-dimethyl-7-[2-(naphthalen-1-yl)ethyl]-2,10,11,12,13,15-hexahydropyrazolo[4′,3′:9,10][1,6]oxazacycloundecino[8,7,6-hi]indole-8-carboxylic Acid] |  |  | > 3.3e-05 |  | 0.296 |  | > 33 | > 3.3e-05 | 2.73e-05 | > 3.3e-05 | > 33 |  |  |  | > 3.3e-05 | > 3.3e-05 |  |  |
| Cn1nc(CC(F)(F)F)c2c1COCCCCn1c(C(=O)O)c(CCCOc3cccc4ccccc34)c3cccc-2c31 (single isomer, unassigned) [Example 221, 1-methyl-7-[3-(naphthalen-1-yloxy)propyl]-3-(2,2,2-trifluoroethyl)-1,10,11,12,13,15-hexahydropyrazolo[4′,3′:9,10][1,6]oxazacycloundecino[8,7,6-hi]indole-8-carboxylic acid-N-ethylethanamine Salt] | > 33 | > 3.3e-05 | 3.28e-05 | 9.75e-06 | 0.353 | > 33 |  |  |  |  |  |  | > 3.3e-05 | > 3.3e-05 M |  |  |  |  |
| O=C(O)c1c(CCCOc2cccc3ccccc23)c2cccc3c2n1CCCCOCc1nn2c(c1-3)CCCC2 (single isomer, unassigned) [Example 255, 1-[3-(naphthalen-1-yloxy)propyl]-4,5,6,7,12,13,14,15-octahydro-9H-pyrido[1″,2″:1′,5′]pyrazolo[4′,3′:9,10][1,6]oxazacycloundecino[8,7,6-hi]indole-2-carboxylic Acid] | > 33 | 1.31e-05 | 2.48e-05 | 1.39e-05 | 0.067 | > 33 |  |  |  |  |  |  | > 3.3e-05 | 3.28e-05 M |  |  |  |  |
| Cn1nc(COCc2ccc(C#N)cc2)c2c1COCCCCn1c(C(=O)O)c(CCCOc3cccc4ccccc34)c3cccc-2c31 (single isomer, unassigned; enantiomer 1) [Example 347, 3-({[(4-cyanobenzyl)oxy]methyl}-1-methyl-7-[3-(naphthalen-1-yloxy)propyl]-1,10,11,12,13,15-hexahydropyrazolo[4′,3′:9,101][1,6]oxazacycloundecino[8,7,6-hi]indole-8-carboxylic acid-N-ethylethanamine Salt (Enantiomer 1)] | > 33 | 1.2e-05 |  |  | 0.343 |  |  |  | 9.45e-06 | 4.2e-06 | > 33 |  |  |  |  | > 3.3e-05 | > 3.3e-05 |  |
| CCc1nn(C)c2c1-c1c(C)ccc3c(C(C)CCOc4cccc5ccccc45)c(C(=O)O)n(c13)CCCCOC2 (single isomer, unassigned) [Example 274, 3-ethyl-1,4-dimethyl-7-[4-(naphthalen-1-yloxy)butan-2-yl]-1,10,11,12,13,15-hexahydropyrazolo[4′,3′:9,10][1,6]oxazacycloundecino[8,7,6-hi]indole-8-carboxylic Acid] | > 33 | 8.02e-06 | 1.17e-05 | 3.93e-06 | 1.56 | 31.7 |  |  |  |  |  |  | > 3.3e-05 | > 3.3e-05 M |  |  |  |  |

Stronger by IC50 (MCL-1), values ahead:

| EC50 (SUDHL5 [2]) [µM] | IC50 (MV-4-11) [M] | IC50 (A2780) [M] | IC50 (SUDHL5 [3]; 72 h incubation) [M] | IC50 (MCL-1) [µM] | EC50 (SUDHL10 [5]) [µM] | EC50 (SUDHL5 [2]; Homo sapiens, SU-DHL-5, 3 h) [µM] | IC50 (MV-4-11; Homo sapiens, MV4-11, 72 h) [M] | IC50 (A2780; Homo sapiens, A2780, 72 h) [M] | IC50 (SUDHL5 [3]; [9]) [M] | EC50 (SUDHL10 [5]; Homo sapiens, SU-DHL10, 3 h) [µM] | IC50 (SUDHL5 [3]; 72 h) [M] | SMILES | IC50 (SUDHL5 [1]; [6]) [M] | IC50 (SUDHL10 [4]; [7]) | IC50 (SUDHL5 [1]; [8]) [M] | IC50 (SUDHL10 [4]; [10]) [M] | IC50 (SUDHL5 [1]; [11]) [M] | IC50 (SUDHL10 [4]; read-out: Cytotox SUDHL10 [M] (median), SUDHL10 cells, cytotoxicity induction, CellTiter-Glo, 5 h, median) |
| --- | --- | --- | --- | --- | --- | --- | --- | --- | --- | --- | --- | --- | --- | --- | --- | --- | --- | --- |
| 11.9 |  | > 3.3e-05 | 1.48e-05 | 0.00943 | 26.9 |  | 9.83e-06 |  |  |  |  | COCc1nn(C)c2c1-c1cccc3c(CCCOc4cccc5ccccc45)c(C(=O)O)n(c13)CCCCCOC2 (single isomer, unassigned; enantiomer 2) [Example 179, 3-(methoxymethyl)-1-methyl-7-[3-(naphthalen-1-yloxy)propyl]-1,11,12,13,14,16-hexahydro-10H-pyrazolo[3′,4′:3,4][1,7]oxazacyclododecino[5,6,7-hi]indole-8-carboxylic acid-N-ethylethanamine Salt (Enantiomer 2)] | 1.22e-05 | > 3.3e-05 M and 3.15e-05 M |  |  |  |  |
|  |  |  |  | 0.0409 |  | > 33 | 3.19e-05 | > 3.3e-05 | 3.27e-05 | > 33 |  | Cc1c2c(nn1C)COCCCCn1c(C(=O)O)c(CCOc3ccc4ccccc4c3)c3cccc-2c31 (racemic) [Example 357, (rac)-2,3-dimethyl-7-[2-(naphthalen-2-yloxy)ethyl]-2,10,11,12,13,15-hexahydropyrazolo[4′,3′:9,10][1,6]oxazacycloundecino[8,7,6-hi]indole-8-carboxylic Acid] |  |  | > 3.3e-05 | > 3.3e-05 |  |  |
| 3.01 |  | 2.25e-05 | 2.32e-06 | 0.00214 | 7.24 |  | 8.59e-06 | > 3.3e-05 |  |  |  | O=C(O)c1c(CCCOc2cccc3ccccc23)c2cccc3c2n1CCCCOCc1nn2c(c1-3)CCCC2 (single isomer, unassigned) [Example 254, 1-[3-(naphthalen-1-yloxy)propyl]-4,5,6,7,12,13,14,15-octahydro-9H-pyrido[1″,2″:1′,5′]pyrazolo[4′,3′:9,10][1,6]oxazacycloundecino[8,7,6-hi]indole-2-carboxylic Acid] | 3.21e-06 | 8.11e-06 M |  |  |  |  |
| 30.7 | 1.88e-05 | 2.82e-05 | 1.26e-05 | 0.041 | > 33 |  |  |  |  |  |  | COCCn1nc(C2CC2)c2c1COCCCCn1c(C(=O)O)c(CCCOc3cccc4c3CCCC4)c3cccc-2c31 (single isomer, unassigned; enantiomer 2) [Example 166, 3-Cyclopropyl-1-(2-methoxyethyl)-7-[3-(5,6,7,8-tetrahydronaphthalen-1-yloxy)propyl]-1,10,11,12,13,15-hexahydropyrazolo[4′,3′:9,10][1,6]oxazacycloundecino[8,7,6-hi]indole-8-carboxylic acid-N-ethylethanamine Salt (Enantiomer 2)] | 2.81e-05 | > 3.3e-05 M |  |  |  |  |
| 3.93 | 2.15e-05 | > 3.3e-05 |  | 0.00127 | 20.7 |  |  |  |  |  | 5.13e-06 | CCc1nn(C)c2c1-c1cccc3c(CCCOc4cccc5c(F)cccc45)c(C(=O)O)n(c13)CCCCOC2 (single isomer, unassigned) [Example 300, 3-ethyl-7-{3-[(5-fluoronaphthalen-1-yl)oxy]propyl}-1-methyl-1,10,11,12,13,15-hexahydropyrazolo[4′3′:9,10][1,6]oxazacycloundecino[8,7,6-hi]indole-Carboxylic Acid] |  |  |  |  | 5.8e-06 | 2.25e-05 |
